# Laboratory results taken from patent publication US6008356A, “Pharmaceutically available protoberberine salts derivatives, and protoberberine salts derivatives, and protoberberine derivatives and salts thereof” (priority 1998, dated 1999).
# Tests used:
# [1] = test system: cultured lung cells derived from chinese hamster; format: cell-based
# male ICR mice = conditions: mouse, in vivo
# rats = test: acute oral toxicity; conditions: rat, in vivo
# Procedure: (§1) Meanwhile, the toxicity test of the compound of the present invention was performed using […]. The compound was suspended in propylene glycol. The resulting suspension was medicated respectively on 5 female rats and 5 male rats(SD) of which age are 5 weeks, via oral after 12 hour starvation. The general symtoms, weight change and lethal case of the above rats were investigated. In cases of tests of the compound Nos. 25, 62, 63 and 85 (delivery of 2,000 mg/kg), the general symtom and weight change were normal and the lethal case was not observed. […] The toxicity data on the compound Nos. 25, 62, 63 and 85 are described in the following Table 5. In light forgoings, the compounds of the present invention are safe in toxicity and have the excellent lethal effect and growth-inhibition effect against fungus.
# acute oral toxicity = conditions: rat, in vivo, po, rats
# Procedure: as §1
# salmonella typhimurium = test: bacterial reverse mutation test (Ames test); format: cell-based
smiles,measurement,setting,value
"COc1ccc2c(Cc3cccc(C(F)(F)F)c3)c3[n+](cc2c1OC)CCc1cc2c(cc1-3)OCO2 [compound 25, 13-(3-trifluoromethylbenzyl)berberine chloride]",chromosome abnormality test,[1],negative
same,nucleus test (micronucleous test),male ICR mice,negative
same,lethal case,rats,not observed
same,LD50,acute oral toxicity; female,> 2500 mg/kg
same,LD50,acute oral toxicity; male,> 3000 mg/kg
same,AMES test,salmonella typhimurium,negative
